Results on 11 molecules are retold here after PubChem BioAssay (NCI).

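Each compound was tested at five concentrations against cells in 96-well plates for 48 hours. GI50 = concentration required for 50% inhibition of growth. TGI: total growth inhibition.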

Some test systems named below: OVCAR-3 ovarian; PC-3 prostate; SNB-75 CNS; CCRF-CEM leukemia; MDA-MB-435; OVCAR-5 ovarian; NCI-H460 lung; MOLT-4 leukemia; ACHN renal; HOP-62 NSCLC.
Common to all, as to assay: inhibition of tumour cell growth, NCI panel, 48 h

With `Cn1c(=O)c(Oc2ccc(F)cc2F)cc2cnc(NC(C)(C)CO)nc21`, the GI50 in the test with OVCAR-3 ovarian, with PC-3 prostate, in the test with SNB-75 CNS, with CCRF-CEM leukemia, with MDA-MB-435 and in the test on OVCAR-5 ovarian was more than 25 µM throughout. The GI50 in the test on NCI-H460 lung, in the test with MOLT-4 leukemia, with ACHN renal and in the test with HOP-62 NSCLC was more than 25 µM each time. Moreover, the TGI in the test with OVCAR-3 ovarian, in the test with PC-3 prostate, in the test on SNB-75 CNS, in the test with CCRF-CEM leukemia, in the test with MDA-MB-435 and in the test on OVCAR-5 ovarian was more than 25 µM throughout. For the same molecule, the TGI in the test on NCI-H460 lung, with MOLT-4 leukemia, in the test on ACHN renal and in the test with HOP-62 NSCLC was more than 25 µM throughout.

In the case of `CC1(C)S[C@@H]2[C@H](N3C(=O)c4ccccc4C3=O)CN2[C@H]1NC(=O)N[C@@H]1N2C[C@@H](N3C(=O)c4ccccc4C3=O)[C@H]2SC1(C)C`, the TGI in the test with OVCAR-3 ovarian, with PC-3 prostate, in the test with SNB-75 CNS, with CCRF-CEM leukemia, in the test on MDA-MB-435 and in the test with OVCAR-5 ovarian was more than 100 µM throughout. For the same molecule, the TGI with NCI-H460 lung, in the test on MOLT-4 leukemia, in the test on ACHN renal and in the test on HOP-62 NSCLC was more than 100 µM in each case.

Turning to `CCN1CCC(Nc2ccnc3cc(Cl)ccc23)CC1`, the GI50 with OVCAR-3 ovarian is 24.8 µM; with PC-3 prostate, 24.9 µM; with SNB-75 CNS it was 18.4 µM; with CCRF-CEM leukemia, 36.9 µM; in the test with MDA-MB-435, 17.8 µM; in the test on OVCAR-5 ovarian, 34.2 µM. Further, the GI50 in the test with NCI-H460 lung is 28.7 µM; in the test on MOLT-4 leukemia, 18.5 µM; in the test with ACHN renal, 33.9 µM; with HOP-62 NSCLC, 21.9 µM. For the same molecule, the TGI is more than 100 µM in the test on OVCAR-3 ovarian; more than 100 µM in the test with PC-3 prostate; 74.8 µM with SNB-75 CNS; more than 100 µM with CCRF-CEM leukemia; 55.5 µM in the test with MDA-MB-435; more than 100 µM in the test with OVCAR-5 ovarian. Besides, the TGI in the test on NCI-H460 lung, in the test with MOLT-4 leukemia, in the test on ACHN renal and with HOP-62 NSCLC was more than 100 µM each time.

Regarding `O=C1/C(=C/c2ccccc2)CN(C(=O)C(Cl)Cl)C/C1=C\c1ccccc1`, the GI50 was 0.33 µM in the test with OVCAR-3 ovarian; 0.297 µM with PC-3 prostate; 1.09 µM in the test on SNB-75 CNS; 0.152 µM in the test on CCRF-CEM leukemia; 0.312 µM in the test on MDA-MB-435; 1.06 µM with OVCAR-5 ovarian. Also, the GI50 is 1.3 µM in the test with NCI-H460 lung, 0.369 µM in the test with MOLT-4 leukemia, 0.438 µM with ACHN renal and 1.39 µM in the test with HOP-62 NSCLC. For the same molecule, the TGI was found to be 1.06 µM with OVCAR-3 ovarian; 1.08 µM in the test with PC-3 prostate; 2.31 µM with SNB-75 CNS; 1.03 µM in the test with MDA-MB-435; 2.85 µM in the test on OVCAR-5 ovarian; 3.01 µM in the test on NCI-H460 lung. The TGI with ACHN renal turned out to be 1.44 µM; in the test on HOP-62 NSCLC, 2.84 µM.

For `CC(=O)O[C@H]([C@H](OC(C)=O)[C@H](C)OC(C)=O)[C@@H](/C=C/[C@@H]1CC=CC(=O)O1)OC(C)=O`, the GI50 with OVCAR-3 ovarian was 17.1 µM; in the test with PC-3 prostate, 13.9 µM; with SNB-75 CNS it was 30.2 µM; in the test on CCRF-CEM leukemia it was 41.5 µM; in the test on MDA-MB-435, 19.8 µM; in the test with OVCAR-5 ovarian it was more than 100 µM. The GI50 is 42 µM with NCI-H460 lung, more than 100 µM in the test with MOLT-4 leukemia, more than 100 µM in the test on ACHN renal and 57.6 µM in the test on HOP-62 NSCLC. Also, the TGI in the test on OVCAR-3 ovarian is 41.9 µM; with PC-3 prostate, more than 100 µM; in the test with SNB-75 CNS it was 69.6 µM; in the test with CCRF-CEM leukemia it was more than 100 µM; in the test on MDA-MB-435 it was more than 100 µM; with OVCAR-5 ovarian, more than 100 µM. Also, the TGI with NCI-H460 lung, in the test on MOLT-4 leukemia, with ACHN renal and in the test with HOP-62 NSCLC was more than 100 µM each time.

Take `C=C1CC2(CC(c3ccccc3Cl)OC(c3ccccc3Cl)C2)OC1=O` (stereo not drawn): the TGI came out at 5.96 µM in the test with OVCAR-3 ovarian; 6.84 µM in the test with PC-3 prostate; 8.41 µM in the test with SNB-75 CNS; 10.1 µM with CCRF-CEM leukemia; 3.51 µM with MDA-MB-435; 16.5 µM in the test on OVCAR-5 ovarian. Besides, the TGI in the test with NCI-H460 lung stood at 12.6 µM; in the test on MOLT-4 leukemia it was 6.19 µM; in the test with ACHN renal, 9.82 µM; in the test on HOP-62 NSCLC, 21.1 µM.

With `COC1C(O)CC(OC2CC(OC3CC(O[C@@H]4C(=O)c5c(cc6cc(OC7CC(OC8CC(O)C(O)C(C)O8)C(O)C(C)O7)c(C)c(O)c6c5O)CC4[C@H](OC)C(=O)O)OC(C)C3O)OC(C)C2O)OC1C` (stereo partly drawn), the GI50 with OVCAR-3 ovarian was 2.06 µM; with PC-3 prostate, 2.4 µM; with SNB-75 CNS it was 1.03 µM; in the test on CCRF-CEM leukemia it was 3.57 µM; in the test with MDA-MB-435 it was 2.56 µM; with OVCAR-5 ovarian it was 4.04 µM. For the same molecule, the GI50 was 1.31 µM with NCI-H460 lung, 2.08 µM in the test on MOLT-4 leukemia, 1.09 µM with ACHN renal and 1.63 µM in the test on HOP-62 NSCLC. Besides, the TGI with OVCAR-3 ovarian was more than 33.3 µM; with PC-3 prostate it was more than 33.3 µM; in the test on SNB-75 CNS it was 7.89 µM; in the test on CCRF-CEM leukemia, more than 33.3 µM; in the test on MDA-MB-435 it was 24.7 µM; in the test with OVCAR-5 ovarian it was more than 33.3 µM. Also, the TGI in the test on NCI-H460 lung, in the test with MOLT-4 leukemia, with ACHN renal and with HOP-62 NSCLC was more than 33.3 µM each time.

For `CN(CCCCCl)P(=O)(OCCS(=O)(=O)CC(NC(=O)CCC(N)C(=O)O)C(=O)NC(C(=O)O)c1ccccc1)OCC1OC(n2ccc(N)nc2=O)C(O)C1O` (stereo not drawn), the GI50 in the test on OVCAR-3 ovarian is 33.7 µM; in the test on PC-3 prostate it was 2.26 µM; in the test on SNB-75 CNS, 40.4 µM; in the test on CCRF-CEM leukemia it was 0.632 µM; in the test on MDA-MB-435 it was 28.3 µM; in the test on OVCAR-5 ovarian, more than 26.1 µM. The GI50 in the test with NCI-H460 lung was 6.4 µM; in the test with MOLT-4 leukemia, 0.851 µM; in the test with ACHN renal, 16.7 µM; in the test with HOP-62 NSCLC, 33.7 µM. Besides, the TGI with OVCAR-3 ovarian is more than 75 µM; in the test on PC-3 prostate, more than 75 µM; in the test on SNB-75 CNS, 74.6 µM; with CCRF-CEM leukemia it was more than 75 µM; with MDA-MB-435, more than 75 µM; in the test with OVCAR-5 ovarian, more than 75 µM. Further, the TGI in the test on NCI-H460 lung was more than 75 µM; in the test with MOLT-4 leukemia it was more than 31.8 µM; with ACHN renal, more than 75 µM; in the test on HOP-62 NSCLC, more than 75 µM.

For `N#Cc1c(NCc2ccccc2)nc(NCc2ccccc2)c(C#N)c1-c1ccc(O)cc1`, the GI50 was 29.6 µM in the test with OVCAR-3 ovarian; 25.6 µM in the test with PC-3 prostate; 67.8 µM in the test with SNB-75 CNS; 27.4 µM in the test with CCRF-CEM leukemia; 25.2 µM with MDA-MB-435; 60.3 µM in the test with OVCAR-5 ovarian. The GI50 is 21.2 µM in the test on NCI-H460 lung, 20.4 µM with MOLT-4 leukemia, 16.9 µM in the test on ACHN renal and 17.3 µM in the test with HOP-62 NSCLC. Moreover, the TGI was 87.4 µM with OVCAR-3 ovarian; more than 100 µM with PC-3 prostate; more than 100 µM in the test with SNB-75 CNS; more than 100 µM in the test on CCRF-CEM leukemia; 69.8 µM in the test on MDA-MB-435; more than 100 µM in the test on OVCAR-5 ovarian. Also, the TGI in the test with NCI-H460 lung is 53.6 µM; with MOLT-4 leukemia it was more than 100 µM; with ACHN renal, 57.1 µM; with HOP-62 NSCLC, 93 µM.

Turning to `CCCCOC(=O)c1ccc(N)cc1`, the GI50 in the test on OVCAR-3 ovarian is 68 µM; in the test on PC-3 prostate, 9.9 µM; with SNB-75 CNS, 41 µM; in the test on CCRF-CEM leukemia it was 48.2 µM; in the test with MDA-MB-435 it was 34.9 µM; with OVCAR-5 ovarian it was 34.8 µM. Moreover, the GI50 was 34.3 µM in the test with NCI-H460 lung, more than 100 µM in the test with MOLT-4 leukemia, 8.46 µM in the test with ACHN renal and more than 100 µM with HOP-62 NSCLC. Also, the TGI in the test with OVCAR-3 ovarian, in the test on PC-3 prostate, with SNB-75 CNS, in the test with CCRF-CEM leukemia, in the test with MDA-MB-435 and in the test with OVCAR-5 ovarian was more than 100 µM throughout. Further, the TGI with NCI-H460 lung, in the test with MOLT-4 leukemia, with ACHN renal and in the test with HOP-62 NSCLC was more than 100 µM throughout.

In the case of `CC/C=C\C[C@H](F)C/C=C1/C(=O)C=C[C@@H]1C/C=C\CCCC(=O)OC`, the GI50 was 2.05 µM with OVCAR-3 ovarian; 1.74 µM in the test on PC-3 prostate; 5.64 µM in the test on SNB-75 CNS; 1.38 µM in the test with CCRF-CEM leukemia; 1.25 µM with MDA-MB-435; 3.35 µM with OVCAR-5 ovarian. For the same molecule, the GI50 is 1.44 µM in the test with NCI-H460 lung, 1.45 µM in the test with MOLT-4 leukemia, 2.46 µM with ACHN renal and 1.45 µM in the test on HOP-62 NSCLC. In addition, the TGI with OVCAR-3 ovarian worked out at 6.9 µM; with PC-3 prostate, 5.7 µM; with SNB-75 CNS it was 11.7 µM; in the test on CCRF-CEM leukemia, 5.75 µM; in the test on MDA-MB-435, 3.37 µM; with OVCAR-5 ovarian it was 12.4 µM. In addition, the TGI worked out at 4.11 µM with NCI-H460 lung, 5.27 µM in the test with MOLT-4 leukemia, 9.07 µM in the test on ACHN renal and 3.45 µM in the test with HOP-62 NSCLC.
